Earlier results on two compounds are cited in patent publication US8021854B2, “Method of treating vascular disease” (priority 2007, dated 2011).

Data set [1] relates to patients with essential thrombocythemia at high risk for vascular events. To be noted: versus hydroxyurea group.
The subject of data set [2] is platelets of patients with essential thrombocythaemia. To be noted: during therapy.
Data set [3] deals with patients with thrombocythemic states. To be noted: 942 patients.
The test system of data set [4] is patients with and without significant cardiovascular history.
The conditions of data set [5]: in vivo.
In data set [6] the test system is patients with myeloproliferative disorders. To be noted: 577 patients.
Another data set concerns vaso-occlusive disease. To be noted: low doses of aspirin.

Where two headings read alike, the source gives them in different places.

For the compound `O=C1CN2Cc3c(ccc(Cl)c3Cl)N=C2N1` [anagrelide], the “withdrawal from assigned treatment” value in data set [1] (P<0.001) is recorded as “more likely to withdraw”. In data set [1] (median follow-up 39 months, 95 percent CI 1.04 to 2.37, P=0.03), the “odds ratio of reaching the primary end point” value was 1.57. Also, in data set [2], the “functional or chemical platelet abnormalities” value is “no functional or chemical abnormality was improved”, the platelet count result is recorded as “corrected” and the platelet volume result is “constantly increased”. In data set [3], the deaths is given as 50, the “deaths from cardiac causes” value is listed as 15, the fluid retention is listed as 22% and the palpitations is listed as 26%. In addition, the “patients who discontinued the agent due to adverse events” value in data set [3] is “Thirteen”. Further, the “severity of cardiovascular events (palpitations, edema, tachycardia)” value in data set [4] (492 patients) was “generally mild and did not increase cardiovascular disease morbidity”. Moreover, in data set [4] (patients with history of cardiac disease, 22 of 90), the “patients experiencing cardiovascular adverse events” value is reported as 24%. Besides, in data set [4] (patients without history of cardiac disease, 30 of 402, p=0.0001), the “patients experiencing cardiovascular adverse events” value was 7%. For the same compound, in data set [5], the “adverse reaction: chest pain” value is listed as 8%, the “adverse reaction: peripheral edema” value is recorded as 9% and the “adverse reaction: tachycardia” value is 8%. For the same compound, the “study population that discontinued therapy due to adverse events” value in data set [6] (mean treatment duration 65 weeks) is recorded as “Sixteen”. Also, the “discontinuation of therapy due to cardiovascular adverse events” value in data set [6] (23 patients) is given as 4%. In data set [6] (209 patients), the “palpitations and tachycardia (patients)” value was 36%. Moreover, in data set [6] (four had preexisting coronary artery disease), the “patients who died from cardiovascular adverse events” value is “Seven”. For the same compound, the “congestive heart failure (patients)” value in data set [6] (fourteen patients) is recorded as 2.4%.

As for `CC(=O)Oc1ccccc1C(=O)O` [aspirin, Acetyl salicylic acid], the “incidence of major haemorrhage” value with vaso-occlusive disease is “less than 1%”. In addition, the “morbidity and mortality reductions” value with vaso-occlusive disease (vaso-occlusive disease, Physician's Health Study) is 45%.
